ChEMBL document CHEMBL3751679, “DNA cleavage at the AP site via β-elimination mediated by the AP site-binding ligands” (Bioorg Med Chem, 2016)
Activity calls are given as the source filed them. No cut-off for these calls is given here.

Columns and labels:
Homo sapiens [1] = species on record: Homo sapiens; experiment: Binding affinity to duplex DNA1(AP)/DNA2(C) (unknown origin) assessed as APE1 catalyzed beta-elimination product formation by gel electrophoresis
Homo sapiens [2] = species on record: Homo sapiens; experiment: Binding affinity to duplex DNA1(AP)/DNA2(G) (unknown origin) assessed as APE1 catalyzed beta-elimination product formation by gel electrophoresis
Homo sapiens [3] = species on record: Homo sapiens; experiment: Binding affinity to duplex DNA1(AP)/DNA2(A) (unknown origin) assessed as APE1 catalyzed beta-elimination product formation by gel electrophoresis
Homo sapiens [4] = species on record: Homo sapiens; experiment: Binding affinity to duplex DNA1(AP)/DNA2(T) (unknown origin) assessed as beta-elimination product formation at 10 uM pH 7 by gel electrophoresis
Homo sapiens [5] = species on record: Homo sapiens; experiment: Binding affinity to duplex DNA1(AP)/DNA2(C) (unknown origin) assessed as beta-elimination product formation at 10 uM pH 7 by gel electrophoresis
Homo sapiens [6] = species on record: Homo sapiens; experiment: Binding affinity to duplex DNA1(AP)/DNA2(G) (unknown origin) assessed as beta-elimination product formation at 10 uM pH 7 by gel electrophoresis
Homo sapiens [7] = species on record: Homo sapiens; experiment: Binding affinity to duplex DNA1(AP)/DNA2(C) (unknown origin) assessed as beta-elimination product formation by HPLC analysis
Homo sapiens [8] = species on record: Homo sapiens; experiment: Binding affinity to duplex DNA1(AP)/DNA2(C) (unknown origin) assessed as beta-elimination product formation after 1 hr at pH 8 by gel electrophoresis
Homo sapiens [9] = species on record: Homo sapiens; experiment: Binding affinity to duplex DNA1(AP)/DNA2(A) (unknown origin) assessed as beta-elimination product formation at 10 uM pH 7 by gel electrophoresis
Homo sapiens [10] = species on record: Homo sapiens; experiment: Binding affinity to duplex DNA1(AP)/DNA2(T) (unknown origin) assessed as APE1 catalyzed beta-elimination product formation by gel electrophoresis

| Activity (Homo sapiens [4]) | Activity (Homo sapiens [5]) | Activity (Homo sapiens [6]) | Activity (Homo sapiens [9]) | Structure (SMILES) | Activity (Homo sapiens [1]) | further results |
| --- | --- | --- | --- | --- | --- | --- |
|  |  |  |  | NCCCNCCCN | inactive |  |
|  |  |  |  | NCCCNCCCNCCCn1ccc(N)nc1=O |  | Activity (Homo sapiens [2]): inactive |
|  |  |  |  | Cc1cn(CCCNCCCNCCCN)c(=O)[nH]c1=O |  | Activity (Homo sapiens [3]): inactive |
| inactive | Active | inactive | inactive | NCCCNCCCNCCCn1cnc2c(=O)[nH]c(N)nc21 | Active | Activity (Homo sapiens [7]): Active; Activity (Homo sapiens [8]): Active |
| Active | Active | Active | Active | NCCCNCCCNCCCn1cnc2c(N)ncnc21 |  | Activity (Homo sapiens [10]): Active |
